# Like-named read-outs stand apart in the source and are kept apart here.
# How the values were obtained:
# [1] = system: A549; assay: IC50 of compounds and E7010 against A549 cell line; format: cell-based
# Description: (§1) In the present investigation, an attempt has been made, in view of the biological importance of both 2-anilino nicotinyl structure and 1,2,3-triazoles group. […] Introduction of triazole group on 2-anilino nicotinyl moiety resulted that there is enhancement of biological activity of representative compounds (1a, 1b, 1c, 1d, 1f, 1g, 1i, 1k, 6b and 6g) compare with E7010. Biological data of representative compounds has been provided in Table 1. • (Novel sulfonamides as potential, systemically active antitumor agents. Yoshino, H.; Ueda, N.; Niijima, J.; Sugumi, H.; Kotake, Y.; Koyanagi, N.; Yoshimatsu, K.; Asada, M.; Watanabe, T.; Nagasu, T. J. Med. Chem. 1992, 35, 2496-2497)
# [2] = system: MCF-7; assay: IC50 of compounds and E7010 against MCF-7 cell line; format: cell-based
# Description: as §1
# [3] = system: A549; details: A549 cell line; E7010 comparison value (Chem MedChem 2012, 7, 680-693); cited from earlier work
# [4] = system: MCF-7; details: MCF-7 cell line; E7010 comparison value (Chem MedChem 2012, 7, 680-693); cited from earlier work
# [5] = Homo sapiens, A549, A549 cell line
# [6] = Homo sapiens, MCF7, MCF-7 cell line
SMILES,melting point [°C],IC50 ([1]; A549 cell line) [nM],"IC50 [1, 5] [nM]","IC50 [2, 6] [nM]",IC50 ([2]; MCF-7 cell line) [nM],IC50 [3] [nM],IC50 [4] [nM]
"O=C(NCc1cn(Cc2cccc(Oc3ccccc3)c2)nn1)c1cccnc1Nc1ccc(Cl)cc1 [Compound 1c, 2-(4-Chlorophenylamino)-N-((1-(3-phenoxybenzyl)-1H-1,2,3-triazol-4-yl)methyl)nicotinamide]",127 to 129,,,,,,
"O=C(NCc1cn(Cc2cccc(Oc3ccccc3)c2)nn1)c1cccnc1Nc1ccc(Br)cc1 [Compound 1d, 2-(4-Bromophenylamino)-N-((1-(3-phenoxybenzyl)-1H-1,2,3-triazol-4-yl)methyl)nicotinamide]",160 to 162,1900,1250 to 3980,740 to 2510,970,,
"O=C(NCc1cn(Cc2cccc(Oc3ccccc3)c2)nn1)c1cccnc1Nc1cccc(F)c1 [Compound 1f, 2-(3-Fluorophenylamino)-N-((1-(3-phenoxybenzyl)-1H-1,2,3-triazol-4-yl)methyl) nicotinamide]",130 to 132,1900,1250 to 3980,,,,
"COc1cc(Cn2cc(CNC(=O)c3cccnc3Nc3ccc(F)cc3)nn2)cc(OC)c1 [Compound 6b, N-((1-(3,5-Dimethoxybenzyl)-1H-1,2,3-triazol-4-yl)methyl)-2-((4-fluorophenyl)amino) nicotinamide]",140 to 142,1250,1250 to 3980,740 to 2510,1000,,
"COc1cc(Cn2cc(CNC(=O)c3cccnc3Nc3ccc(OC)cc3OC)nn2)cc(OC)c1 [Compound 6g, N-((1-(3,5-Dimethoxybenzyl)-1H-1,2,3-triazol-4-yl)methyl)-2-((2,4-dimethoxyphenyl)amino)nicotinamide]",147 to 149,1310,1250 to 3980,740 to 2510,1170,,
COc1ccc(S(=O)(=O)Nc2cccnc2Nc2ccc(O)cc2)cc1 [Compound E7010],,,,,,4450,9060
